{"source": "patent US20230149351A1", "about": "“TREATMENT OF SYMPTOMATIC VIRAL DISEASES” (SYNACT PHARMA ApS, priority 2020, published 2023)", "key": {"[1]": {"test_system": "macrophages", "conditions": "cited from earlier work"}, "[2]": {"test_system": "Covid-19 induced pulmonary insufficiency", "conditions": "100 mg once daily oral, add-on to standard therapy; 6 patients", "quoted_text": "The initial open label part of the study was conducted in 6 patients referred to hospital with Covid-19 induced pulmonary insufficiency, defined as a need for supplementary oxygen to maintain normal saturation."}, "[3]": {"molecular_target": "MC1R (Homo sapiens, UniProt Q01726)", "sequence (Q01726 whole entry, species assumed)": "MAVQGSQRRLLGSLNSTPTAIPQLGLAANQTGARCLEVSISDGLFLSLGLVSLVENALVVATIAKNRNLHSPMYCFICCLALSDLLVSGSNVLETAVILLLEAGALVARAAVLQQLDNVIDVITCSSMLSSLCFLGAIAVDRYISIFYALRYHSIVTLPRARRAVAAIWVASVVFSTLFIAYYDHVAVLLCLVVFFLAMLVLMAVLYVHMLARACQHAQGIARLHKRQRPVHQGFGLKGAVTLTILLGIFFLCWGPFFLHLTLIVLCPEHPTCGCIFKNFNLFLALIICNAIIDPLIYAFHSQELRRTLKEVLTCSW", "conditions": "cited from earlier work"}, "[4]": {"test_system": "acute peritonitis induced by zymosan A", "assay": "Zymosan A induced acute peritonitis in mice (peritoneal cytokines by ELISA, neutrophil counts by flow cytometry)", "assay_type": "in vivo, mice (C57BL/6J)", "conditions": "1 mg/kg intraperitoneal 30 minutes before zymosan A, sacrifice twelve hours later, N=6", "protocol": "Acute peritonitis was induced by the injection of 1 mg zymosan A (Sigma-Aldrich) i.p. in 0.5 ml sterile PBS in mice. Twelve hours later the mice were sacrificed by CO2 exposure, and peritoneal cavities were washed with 4 ml ice-cold PBS containing 3 mM EDTA. Cells were stained with Turk’s solution (0.01% crystal violet in 3% acetic acid) and counted using a Neubauer hemocytometer or were stained with FITC-conjugated mAb for Ly-6G/Gr1, F4/80, and corresponding isotype controls (eBioscience, Hatfield, U.K.), and subjected to flow-cytometry analysis using a BD FACSCalibur platform (BD Biosciences, Oxford, U.K.).\nLevels of IL-1β and IL-6 in quick frozen samples were quantified according to the manufacturer’s instructions using ELISA Ready-SET-Go! (eBioscience).\nAll animal studies were approved by and performed under the guidelines of the Ethical Committee for the Use of Animals, Barts and The London School of Medicine and Home Office regulations (Guidance on the Operation of Animals, Scientific Procedures Act, 1986). Male (7-8 wk old) C57BL/6J wild-type (WT) mice were purchased from Charles River Laboratories.\nTest Item A, 1 mg/kg or vehicle treatment were given intraperitoneal 30 minutes before induction of the acute peritonitis. N=6 for in both groups."}, "[5]": {"test_system": "MC1R", "conditions": "cited from earlier work"}, "[6]": {"test_system": "MC3R", "conditions": "cited from earlier work"}, "[7]": {"test_system": "melanocytes", "conditions": "cited from earlier work"}, "[8]": {"test_system": "peritonitis", "conditions": "oral; cited from earlier work"}, "[9]": {"test_system": "experimental inflammatory arthritis", "conditions": "oral; cited from earlier work"}, "[10]": {"test_system": "mouse primary macrophages", "conditions": "cited from earlier work"}}, "data": [{"smiles": "NC(N)=N/N=C/C=C/c1cccn1-c1ccccc1[N+](=O)[O-]", "note": "[AP1189, (E)-N-trans-{3-[1-(2-nitrophenyl)-1H-pyrrol-2-yl]-allylidene}-aminoguanidium acetate]", "values": [{"measurement": "cytokine release", "setting": "[1]", "value": "reduce cytokine release"}, {"measurement": "development of a need for more intensive pulmonary support", "setting": "[2]", "value": "none of them developed a need for more intensive pulmonary support"}, {"measurement": "safety and tolerability", "setting": "[2]", "value": "safe and well tolerated"}, {"measurement": "binding to MC1R", "setting": "[3]", "value": "bind the MC1R"}, {"measurement": "reduction of neutrophil accumulation compared to vehicle", "setting": "[4]", "value": 70, "unit": "%"}, {"measurement": "reduction of levels of pro-inflammatory cytokine IL-1β compared to pretreatment with vehicle", "setting": "[4]; p<0.05 vs vehicle", "value": 37, "unit": "%"}, {"measurement": "reduction of levels of pro-inflammatory cytokine IL-6 compared to pretreatment with vehicle", "setting": "[4]; p<0.05 vs vehicle", "value": 59, "unit": "%"}, {"measurement": "ERK1/2 phosphorylation (MC1R)", "setting": "[5]", "value": "cause ERK1/2 phosphorylation"}, {"measurement": "canonical cAMP generation (MC1R)", "setting": "[5]", "value": "does not induce canonical cAMP generation"}, {"measurement": "type of agonism at MC1R", "setting": "[5]", "value": "biased agonist"}, {"measurement": "ERK1/2 phosphorylation (MC3R)", "setting": "[6]", "value": "cause ERK1/2 phosphorylation"}, {"measurement": "canonical cAMP generation (MC3R)", "setting": "[6]", "value": "does not induce canonical cAMP generation"}, {"measurement": "type of agonism at MC3R", "setting": "[6]", "value": "biased agonist"}, {"measurement": "melanogenesis", "setting": "[7]", "value": "no melanogenesis was induced"}, {"measurement": "anti-inflammatory action in peritonitis", "setting": "[8]", "value": "elicits anti-inflammatory actions"}, {"measurement": "resolution phase of peritonitis", "setting": "[8]", "value": "accelerated the resolution phase"}, {"measurement": "macroscopic and histological parameters of joint disruption", "setting": "[9]", "value": "significant reduction"}, {"measurement": "efferocytosis", "setting": "[10]", "value": "proefferocytic effect"}]}]}
